This is an account of results in patent publication US9199928B2, “Fluorescent dye for pH sensor” (SARTORIUS STEDIM BIOTECH GMBH, priority 2011, dated 2015).

For orientation: melting point means the temperature, or range, at which the solid turns liquid.

As for `NC(CCCCNS(=O)(=O)c1cc(S(=O)(=O)NCCCCC(N)C(=O)O)c2ccc3c(O)cc(O)c4ccc1c2c43)C(=O)O` (stereo not shown), the melting point is 210 to 212 °C (dec.).
